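Values below derive from 48-hour exposures of cells grown in 96-well plates, with endpoints linearly interpolated between the two concentrations bracketing the appropriate inhibition level. At the TGI there is no net growth.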
How the values were obtained:
Assay in all cases: NCI tumour cell line growth inhibition, 48 h
[1] = system: HCC-2998 colon
[2] = system: UACC-257 melanoma
[3] = system: SNB-78 CNS
[4] = system: MOLT-4 leukemia
[5] = system: HOP-18 NSCLC
[6] = system: M14 melanoma
[7] = system: KM20L2 colon
[8] = system: M19-MEL melanoma
[9] = system: HOP-92 NSCLC
[10] = system: SK-MEL-5 melanoma
[11] = system: SN12C renal
[12] = system: LOX IMVI melanoma
[13] = system: RXF-631 renal
[14] = system: CAKI-1 renal
[15] = system: SF-295 CNS
[16] = system: SF-539 CNS
[17] = system: HL-60(TB) leukemia
[18] = system: SNB-19 CNS
[19] = system: U251 CNS
[20] = system: IGROV1 ovarian
[21] = system: RPMI-8226 leukemia
[22] = system: HT29 colon
[23] = system: NCI-H23 lung
[24] = system: KM12 colon
[25] = system: NCI-H460 lung
[26] = system: SK-MEL-2 melanoma
[27] = system: OVCAR-3 ovarian
[28] = system: XF 498 CNS
[29] = system: K-562 leukemia
[30] = system: HCT-116 colon
[31] = system: RXF 393 renal
[32] = system: LXFL 529 NSCLC
[33] = system: SK-OV-3 ovarian
[34] = system: SNB-75 CNS
[35] = system: 786-0 renal
[36] = system: UACC-62 melanoma
[37] = system: TK-10 renal
[38] = system: SF-268 CNS
[39] = system: ACHN renal
[40] = system: OVCAR-5 ovarian
[41] = system: DMS 114 small cell lung
[42] = system: HCT-15 colon
[43] = system: A549 NSCLC
[44] = system: COLO 205 colon
[45] = system: SW-620 colon
[46] = system: OVCAR-4 ovarian
[47] = system: UO-31 renal
[48] = system: EKVX NSCLC
[49] = system: OVCAR-8 ovarian
[50] = system: DMS 273 small cell lung
[51] = system: MALME-3M melanoma
[52] = system: HOP-62 NSCLC
[53] = system: CCRF-CEM leukemia
[54] = system: NCI-H522 lung
[55] = system: NCI-H226 lung
[56] = system: DLD-1 colon
[57] = system: SK-MEL-28 melanoma
[58] = system: A498 renal
[59] = system: SR leukemia
[60] = system: PC-3 prostate
[61] = system: P388 leukemia
[62] = system: P388/ADR leukemia

In the case of O=C(/N=N/C(=O)OCc1ccccc1)OCc1ccccc1, the TGI [1] is reported as over 100 µM, the TGI [2] is reported as over 100 µM and the TGI [3] is reported as over 100 µM. It also gave a TGI [4] of over 100 µM, a TGI [5] of over 100 µM and a TGI [6] of over 100 µM. For the same molecule, the TGI [7] was over 100 µM, the TGI [8] was over 100 µM and the TGI [9] was 56.8 µM. It also gave a TGI [10] of over 100 µM, a TGI [11] of over 100 µM and a TGI [12] of over 100 µM. The TGI [13] was over 100 µM, the TGI [14] was over 100 µM and the TGI [15] was over 100 µM. It also gave a TGI [16] of over 100 µM, a TGI [17] of over 100 µM and a TGI [18] of over 100 µM. The TGI [19] was over 100 µM, the TGI [20] was over 100 µM and the TGI [21] was over 100 µM. For the same molecule, the TGI [22] was over 100 µM, the TGI [23] was over 100 µM and the TGI [24] was over 100 µM. It also gave a TGI [25] of over 100 µM, a TGI [26] of over 100 µM and a TGI [27] of over 100 µM. For the same molecule, the TGI [28] was over 100 µM, the TGI [29] was over 100 µM and the TGI [30] was over 100 µM. The TGI [31] was over 100 µM, the TGI [32] was over 100 µM and the TGI [33] was over 100 µM. It also gave a TGI [34] of over 100 µM, a TGI [35] of over 100 µM and a TGI [36] of over 100 µM. For the same molecule, the TGI [37] was over 100 µM, the TGI [38] was over 100 µM and the TGI [39] was over 100 µM. The TGI [40] was over 100 µM, the TGI [41] was over 100 µM and the TGI [42] was over 100 µM. For the same molecule, the TGI [43] was over 100 µM, the TGI [44] was over 100 µM and the TGI [45] was over 100 µM. For the same molecule, the TGI [46] was over 100 µM, the TGI [47] was over 100 µM and the TGI [48] was over 100 µM. It also gave a TGI [49] of over 100 µM, a TGI [50] of over 100 µM and a TGI [51] of over 100 µM. The TGI [52] was over 100 µM and the TGI [53] was over 100 µM.
Molecule O=C(Nc1cccc(O)c1)C(=O)C(C(=O)c1ccccc1F)C1OC(=O)c2ccccc21 (configuration not stated) has a TGI [54] of 63.9 µM, a TGI [1] of 39.4 µM and a TGI [2] of over 100 µM. For the same molecule, the TGI [3] was 92.9 µM, the TGI [4] was over 100 µM and the TGI [6] was over 100 µM. It also gave a TGI [7] of 58.9 µM, a TGI [55] of 49.1 µM and a TGI [8] of 54.4 µM. For the same molecule, the TGI [9] was over 100 µM, the TGI [10] was over 100 µM and the TGI [11] was over 100 µM. It also gave a TGI [12] of 47.1 µM, a TGI [56] of over 100 µM and a TGI [13] of 93.5 µM. It also gave a TGI [14] of 94 µM, a TGI [15] of over 100 µM and a TGI [16] of 40.2 µM. It also gave a TGI [17] of 87.7 µM, a TGI [18] of 68 µM and a TGI [57] of 92.9 µM. For the same molecule, the TGI [19] was 26.9 µM, the TGI [20] was over 100 µM and the TGI [21] was 87.8 µM. The TGI [22] was over 100 µM, the TGI [23] was 88.2 µM and the TGI [24] was 71 µM. It also gave a TGI [25] of 94.9 µM, a TGI [26] of 62.2 µM and a TGI [29] of over 100 µM. For the same molecule, the TGI [58] was over 100 µM, the TGI [30] was 33.9 µM and the TGI [31] was 39.8 µM. The TGI [32] was 88.8 µM, the TGI [33] was over 100 µM and the TGI [34] was 53.1 µM. The TGI [36] was 37.8 µM, the TGI [37] was over 100 µM and the TGI [38] was 74.7 µM. For the same molecule, the TGI [39] was over 100 µM, the TGI [40] was over 100 µM and the TGI [41] was 40.7 µM. It also gave a TGI [42] of 49.2 µM, a TGI [43] of over 100 µM and a TGI [44] of 48.3 µM. It also gave a TGI [45] of over 100 µM, a TGI [46] of over 100 µM and a TGI [47] of 96.8 µM. It also gave a TGI [59] of 83.7 µM, a TGI [48] of over 100 µM and a TGI [49] of 30.5 µM. For the same molecule, the TGI [50] was 98.1 µM, the TGI [52] was over 100 µM and the TGI [53] was 68.5 µM.
With O=C1/C(=C/c2ccccc2)CNC/C1=C\c1ccccc1 the TGI [54] was 2.66 µM, the TGI [1] was 3.33 µM and the TGI [2] was 10.6 µM. For the same molecule, the TGI [3] was 41.8 µM, the TGI [4] was 3.36 µM and the TGI [5] was 22.9 µM. For the same molecule, the TGI [6] was 3.56 µM, the TGI [7] was 3.09 µM and the TGI [55] was 6.18 µM. For the same molecule, the TGI [8] was 2.72 µM, the TGI [9] was 22.1 µM and the TGI [10] was 4.07 µM. The TGI [11] was 3.28 µM, the TGI [12] was 2.05 µM and the TGI [56] was 1.08 µM. For the same molecule, the TGI [13] was 13 µM, the TGI [14] was 17.6 µM and the TGI [15] was 5.25 µM. For the same molecule, the TGI [16] was 3.46 µM, the TGI [18] was 11.9 µM and the TGI [57] was 3.9 µM. The TGI [19] was 1.37 µM, the TGI [20] was 3.63 µM and the TGI [21] was 0.787 µM. The TGI [22] was 3.13 µM, the TGI [23] was 4.27 µM and the TGI [24] was 2.66 µM. For the same molecule, the TGI [25] was 3.08 µM, the TGI [26] was 9.18 µM and the TGI [27] was 3.09 µM. The TGI [28] was 6.41 µM, the TGI [29] was over 23.8 µM and the TGI [58] was 4.57 µM. For the same molecule, the TGI [30] was 0.415 µM, the TGI [32] was 3.58 µM and the TGI [33] was 6.36 µM. For the same molecule, the TGI [34] was 11.6 µM, the TGI [35] was 2.93 µM and the TGI [36] was 3.69 µM. For the same molecule, the TGI [37] was 7.61 µM, the TGI [38] was 9.34 µM and the TGI [39] was 4.37 µM. It also gave a TGI [40] of 6.21 µM, a TGI [41] of 8.36 µM and a TGI [42] of 2.76 µM. The TGI [43] was 7.63 µM, the TGI [44] was 3.11 µM and the TGI [45] was 2.11 µM. For the same molecule, the TGI [46] was 2.9 µM, the TGI [47] was 3.87 µM and the TGI [59] was 0.536 µM. It also gave a TGI [48] of 16.5 µM, a TGI [49] of 5.88 µM and a TGI [50] of 2 µM. For the same molecule, the TGI [51] was 9.3 µM, the TGI [52] was 7.46 µM and the TGI [53] was over 25.5 µM.
In the case of CCCCCCCCCCNC1CC(OC2CC(O)(C(O)CO)Cc3c(O)c4c(c(O)c32)C(=O)c2c(OC)cccc2C4=O)OC(C)C1O (configuration not stated), the TGI [54] is reported as 3.73 µM, the TGI [60] is reported as 2.85 µM and the TGI [1] is reported as 2.74 µM. The TGI [2] was 3.05 µM, the TGI [4] was 0.9 µM and the TGI [10] was 3.06 µM. For the same molecule, the TGI [11] was 3.4 µM, the TGI [56] was 2.28 µM and the TGI [16] was 3.41 µM. The TGI [21] was 3.73 µM, the TGI [23] was 12.6 µM and the TGI [28] was 3.34 µM. It also gave a TGI [29] of 0.963 µM, a TGI [58] of 2.62 µM and a TGI [30] of 0.65 µM. It also gave a TGI [31] of 2.75 µM, a TGI [34] of 2.74 µM and a TGI [37] of 56.5 µM. It also gave a TGI [40] of 3.29 µM, a TGI [42] of 4 µM and a TGI [61] of 0.362 µM. The TGI [62] was 3.34 µM and the TGI [53] was 4.91 µM.
